Measurements: paper PMC3985299, “Single Ascending Dose Safety and Pharmacokinetics of CDRI-97/78: First-in-Human Study of a Novel Antimalarial Drug” (Malaria Research and Treatment, 2014)
Entries after “also recorded” stand apart in the source; their conditions may differ.

Key:
[1] = system: healthy human volunteers; test: Single ascending dose study: clinical parameters (blood pressure, pulse rate, respiratory rate, corrected QT); format: in vivo; design: SBP / DBP: unit not given here; conditions: for DBP / SBP: 2 hours after drug administration; for Diastolic blood pressure: 600 and 700 mg group
Excerpt: The volunteers after giving informed consent were screened. The screening process was done latest within 1 month of admission for dosing. The volunteers who fulfilled the inclusion/exclusion criteria were admitted in the CPU the night before drug administration. Standardized dinner was served at 9 pm the night prior to dosing. On day 0, baseline blood sample for biochemical and haematological examination and stool and urine samples for routine and microscopy were taken. They received the study drug, according to the randomization sequence, under supervision. The empty packaging was returned to the container. The volunteers received drug as per randomization. Breakfast was given half an hour after drug administration. Subsequently, standardized lunch and dinner were served to the volunteers.
The subjects were attached to a cardiac monitor and vital HR, BP, ECG, oxygen saturation, and RR were recorded. Corrected QT interval using Fridericia's formula was calculated. Adverse events were assessed at specific time points (0.5, 1, 2, 4, 6, 8, 12, and 24 hrs after medication). Unscheduled monitoring was undertaken whenever it felt necessary. The volunteers were discharged after 24 hrs and they had to return at 48 hrs and on the 7th day for follow-up. At the end of the 7th day, they were said to have completed the study. Routine haematological and biochemical investigations were performed at 0 hr, 24 hrs after drug administration, and on day 7. The study was monitored by a Data Safety Monitoring Board.

[2] = system: healthy human volunteers; test: Single ascending dose study: haematological parameters; format: in vivo; conditions: 400 mg
Excerpt: The study was approved by the Institute's Ethics Committee. The single ascending dose study and the pharmacokinetic study are registered with Central Trial Registry of India (CTRI/2012/07/002812; CTRI/2012/07/002832). Normal healthy male volunteers in the age group of 18–45 years were invited to join the trial. A detailed informed consent process of the volunteers was undertaken and screening of the volunteers was done after obtaining informed consent. They were recruited through contacts and hospital employees were excluded. The health status of the volunteers was determined by taking medical history, physical examination, routine haematology (haemoglobin, total lymphocyte count, differential count, and platelet count), clinical biochemistry (serum glutamic oxaloacetic transaminase (SGOT), serum glutamic pyruvic transaminase (SGPT), serum bilirubin, serum creatinine, blood urea, serum electrolytes, random blood sugar, total protein, and serum lipid profile), and urine and stool analysis (routine examination and microscopy). The volunteers were asked to report to the study site after 12 hours of fasting for the blood tests. Chest X-ray and 12-lead ECG were also taken. The participants were also screened for human immunodeficiency virus (HIV) and hepatitis B. The volunteers after giving informed consent were screened. The screening process was done latest within 1 month of admission for dosing. The volunteers who fulfilled the inclusion/exclusion criteria were admitted in the CPU the night before drug administration. Standardized dinner was served at 9 pm the night prior to dosing. On day 0, baseline blood sample for biochemical and haematological examination and stool and urine samples for routine and microscopy were taken. […] The subjects were attached to a cardiac monitor and vital HR, BP, ECG, oxygen saturation, and RR were recorded. Corrected QT interval using Fridericia's formula was calculated. Adverse events were assessed at specific time points (0.5, 1, 2, 4, 6, 8, 12, and 24 hrs after medication). […] The study was monitored by a Data Safety Monitoring Board.

[3] = system: chloroquine sensitive P. berghei; design: method as in printed; conditions: chloroquine sensitive P. berghei in mice; background, ref not given; cited from earlier work
[4] = system: multidrug resistant P. yoelii; design: method as in printed; conditions: multidrug resistant P. yoelii in mice; background, ref not given; cited from earlier work

Which DBP ([1]; 80 mg) does the source give for `C=C(c1ccc(OC(C)(C)COC(=O)CCC(=O)O)cc1)C1COC2(OO1)C1CC3CC(C1)CC2C3` (centres unmarked) [CDRI 97/78, Mono[2methyl2[3(1spiro[tricycle[3.3.1.13,7]decane2,3′-[1,2,4]trioxan] 6′-ylethenyl)phenoxy]propyl] ester] here?
The DBP was 73 ± 5.21.

And the SBP ([1]; 80 mg)?
Its SBP is 112.17 ± 6.24.

And the DBP ([1]; 160 mg)?
The DBP was 77.17 ± 8.06.

What about the SBP ([1]; 160 mg) of the same molecule?
Its SBP is 119.5 ± 5.17.

And the DBP ([1]; 320 mg)?
Its DBP is 82.33 ± 4.68.

And the SBP ([1]; 320 mg)?
The SBP was 127.5 ± 6.38.

And the DBP ([1]; 400 mg)?
Its DBP is 71.33 ± 8.19.

What about the SBP ([1]; 400 mg) of the same molecule?
Its SBP is 111.83 ± 7.91.

What about the DBP ([1]; 500 mg) of the same molecule?
Its DBP is 71.83 ± 7.81.

What about the SBP ([1]; 500 mg) of the same molecule?
Its SBP is 114.5 ± 8.34.

And the DBP ([1]; 600 mg)?
The DBP was 66.5 ± 6.53.

And the SBP ([1]; 600 mg)?
The SBP was 112.83 ± 6.18.

And the DBP ([1]; 700 mg)?
The DBP was 69 ± 8.48.

What about the SBP ([1]; 700 mg) of the same molecule?
The SBP was 115.5 ± 2.12.

And the “Corrected QT interval (Fridericia), change within treatment groups” value ([1]; 80-700 mg groups)?
The value was “no statistically or clinically significant difference; also recorded: No clinically meaningful alteration”.

And the Diastolic blood pressure ([1]; 0 hours)?
The Diastolic blood pressure was 76.87 ± 8.74 mmHg.

And the Diastolic blood pressure ([1]; 0.5 hours)?
The Diastolic blood pressure was 78.37 ± 8.86 mmHg.

And the Diastolic blood pressure ([1]; 1 hours)?
Its Diastolic blood pressure is 79.25 ± 13.46 mmHg.

And the Diastolic blood pressure ([1]; 2 hours)?
Its Diastolic blood pressure is 67.12 ± 6.49 mmHg.

What about the Diastolic blood pressure ([1]; 4 hours) of the same molecule?
Its Diastolic blood pressure is 73.12 ± 12.32 mmHg.

And the Diastolic blood pressure ([1]; 6 hours)?
Its Diastolic blood pressure is 75.87 ± 8.11 mmHg.

And the Diastolic blood pressure ([1]; 8 hours)?
Its Diastolic blood pressure is 74 ± 11 mmHg.

And the Diastolic blood pressure ([1]; 12 hours)?
The Diastolic blood pressure was 75 ± 10.03 mmHg.

And the “Pulse rate, respiratory rate and systolic blood pressure, change compared to baseline” value ([1]; any time point, all treatment groups)?
Its value is “None of the treatment groups demonstrated a significant alteration”.

And the Hemoglobin ([2]; 7th day)?
The Hemoglobin was 14.35 ± 1.10 gm%.

And the Hemoglobin ([2]; 24 hr)?
Its Hemoglobin is 14.92 ± 0.94 gm%.

What about the Hemoglobin ([2]; baseline) of the same molecule?
Its Hemoglobin is 14.25 ± 0.75 gm%.

And the Antimalarial activity [3]?
The Antimalarial activity was “powerful antimalarial activity”.

What about the Antimalarial activity [4] of the same molecule?
The Antimalarial activity was “powerful antimalarial activity”.
